# From article PMC7698783, “Performance of Population Pharmacokinetic Models in Predicting Polymyxin B Exposures” (Microorganisms, 2020)
# Values joined by “and” are separate entries in the source; they are usually repeats but may differ in a detail not shown here. Equal entries are not always repeated. Positions of bridges follow the written chain, without caps; N, C: chain ends. Non-standard residues stand in square brackets, D forms with d. Residues, ends and D or L forms follow the SMILES beside them. *: point of attachment. X1 = CC[C@H](C)CCCCC(=O)*; Dab = NCC[C@H](N)C(=O)O
# Tests used:
# [1] = 3 population PK studies, no demographic variables linked to total clearance; cited from earlier work
# Excerpt: In contrast, body weight was linked to total clearance in a study using a two-compartment model. Finally, creatinine clearance had been linked to total clearance of polymyxin B in cystic fibrosis patients. || There were several limitations in our study. Only a limited number of (primarily male) patients were enrolled with standard clinical dosing and dosing frequency. The robustness of our conclusion would be enhanced with a larger sample size and a wider range of dosing regimens. Also, the observed AUC values for comparison were based only 4 data points over a single dosing interval.
# [2] = Steady-state plasma pharmacokinetics of intravenous polymyxin B in adult patients (LC-MS/MS, ADAPT 5 compartment fitting); assay type: in vivo; details: human, one-compartment model, 13 adult patients, i.v. every 12 h, median, read-out: best-fit elimination half-life (median) (converted)
# Procedure: This was a prospective observational study. The study was conducted from March 2016 to March 2018 at two major teaching hospitals in Singapore: Tan Tock Seng Hospital (TTSH) and Singapore General Hospital (SGH). Adult patients (21 years of age or greater) who received intravenous polymyxin B (USP) for the treatment of suspected or confirmed bacterial infections were enrolled. The dose, dosing interval, and infusion duration of polymyxin B administration were as prescribed by the respective attending medical teams. Patients who were pregnant, on dialysis, with burns or spinal cord injury were excluded.
# For each subject, four blood samples were obtained serially over one dosing interval at steady state (presumably after the third day of therapy). Since the dosing regimens were not standardized, a sampling scheme spanning the samples over the dosing interval was adopted to accommodate different scenarios. Sample 1 was obtained within 0.5 h prior to the next scheduled dose, sample 2 was obtained 0.5–1 h after the end of drug administration, sample 3 was obtained 3–8 h after the end of drug administration, and sample 4 was obtained within 4 h prior to the next scheduled dose. All samples were specifically timed in relation to drug administration. […] Polymyxin B concentrations in plasma samples were determined using a validated liquid chromatography tandem mass spectrometry method. […]
smiles,measurement,setting,value
CC[C@H](C)CCCCC(=O)N[C@@H](CCN)C(=O)N[C@H](C(=O)N[C@@H](CCN)C(=O)N[C@H]1CCNC(=O)[C@H]([C@@H](C)O)NC(=O)[C@H](CCN)NC(=O)[C@H](CCN)NC(=O)[C@H](CC(C)C)NC(=O)[C@@H](Cc2ccccc2)NC(=O)[C@H](CCN)NC1=O)[C@@H](C)O [polymyxin B] (X1-[Dab]T[Dab][Dab][Dab][dF]L[Dab][Dab]T; lactam 4-C),estimates of clearance (total clearance) in population pharmacokinetic studies,[1],2.4 L/h and 2.5 L/h and 2.6 L/h
same,half-life,[2],6.8 h
